Source: patent US9193681B1, “Propionic acids, propionic acid esters, and related compounds” (Promentis Pharmaceuticals, Inc., priority 2014, dated 2015)

What was measured:
[1] = system: human glial cells from brain astrocytoma (1321N1); assay: 14C-cystine uptake in human glial cell culture; type: cell-based; settings: 100 μM (most effective concentration); relative to untreated control; 1321N1 cells; three hour incubation
Procedure: The screening of the compound was performed using an in vitro culture system of human glial cells from brain astrocytoma (1321N1). Cells were plated on 24 well plates coated with poly-D-lysine and laminin and grown in a balanced salt solution supplemented with 5% heat inactivated horse serum, 5% fetal bovine serum, 2 mM glutamine and glucose (total 21 mM). Cultures were maintained in humidified 5% CO2 incubators at 37° C. for 3-4 days before experiments were performed, at this time the cultures has formed a single confluent layer. For experiments, cultures are washed 3 times into a Na-free HEPES and HCO3^− buffered balanced salt solution. After 1 hour, the test compounds are added. Following a three hour incubation, ^14C-cystine (0.025 mCi/mL) was then added for 20 minutes. Following the ^14C-cystine exposure, cultures were washed 3 times with ice cold HEPES buffered saline solution and dissolved in 250 μl sodium dodecyl sulfate (0.1%). An aliquot (200 μl) was removed and added to scintillation fluid for counting. Values were normalized to ^14C-cystine uptake in untreated controls on the same experimental plate.

[2] = system: human glial cells from brain astrocytoma (1321N1); assay: 3H-glutamate release from human glial cell culture; type: cell-based; settings: at 3 hours; 100 μM; relative to untreated control; 1321N1 cells
Procedure: This assay also uses the cell culture system of human glial cells from brain astrocytoma (1321N1) described above. Initially, cells are washed, and ^3H-glutamate is added (PerkinElmer: 1 mCi/mL stock solution is diluted (30 μL+500 μL HBBSS) and 10 μL of diluted radiolabel is added to each well). Following a 1 hour incubation to load the cells with the labeled glutamate, the cells are washed again with HBBSS, and the drug is added. At 30, 90, and 180 minutes, 50 μL of extracellular media is sampled from each well and is measured using a Beckman LS 6500 scintillation counter.

[3] = system: mixed cortical cell cultures containing glial and neuronal cells; assay: In vitro thiol experiment: intracellular cysteine levels; type: cell-based, mice; settings: 100 μM
Procedure: Mixed cortical cell cultures containing glial and neuronal cells were prepared from fetal (15-16 day gestation) mice as previously described. Lobner D, Comparison of the LDH and MTT assays for quantifying cell death: validity for neuronal apoptosis?, J Neurosci Methods, 2000, Mar. 15, 96(2), 147-152). Dissociated cortical cells were plated on 24-well plates coated with poly-D-lysine and laminin in Eagles' Minimal Essential Medium (MEM, Earle's salts, supplied glutamine-free) supplemented with 5% heat-inactivated horse serum, 5% fetal bovine serum, 2 mM glutamine and glucose (total 21 mM). Cultures were maintained in humidified 5% CO2 incubators at 37° C. […]
Samples were then sonicated with a Fisher Scientific 60 Sonic Dismembrator. One fraction of this homogenate was analyzed with the Pierce BCA (bicinchoninic acid) method to determine protein concentration. The other fraction was filtered using 3 K molecular weight cutoff, polyethersulfone centrifugal protein filters, and analyzed for thiol content using high-performance liquid chromatography (ALF-115 column, 150×1.0 mm, 3 μm C18; mobile phase: 50 mM citric acid, 10 mM octanesulfonic acid, 2% acetonitrile, pH 2.8, 50 uL/min flow rate) with electrochemical detection (Decade II, Au working electrode, Flex Cell HyREF, 0.55V, Antec Leyden, Netherlands).

rats [4] = assay: Prepulse inhibition experiment (MK-801-induced deficit); type: in vivo, rat; settings: 3 mg/kg P.O., MK-801 0.1 mg/kg SC, MK-801 plus vehicle control about 18%
Procedure: Rats were placed on a platform in a sound attenuating chamber (10.875″×14″×19.5″; Hamilton Kinder, Calif.) that rested on a motion sensing plate. During all sessions, the background noise was held constant at 60 dB. A matching session was conducted to determine the magnitude of the average startle response for each rat. This session consisted of a five minute habituation period followed by 20 trials; 17 trials involved the presentation of a single auditory stimulus (pulse stimulus; 50 dB above the background noise) and three trials in which a pre-pulse stimulus (12 db above background) was presented 100 ms before the pulse auditory stimulus. Rats were then assigned into the various treatment groups so that the magnitude of the startle response was equivalent across all groups. Two days later, a testing session was conducted to assess sensorimotor gating. One hour prior to testing, rats received a prodrug (0-100 mg/kg, P.O.) and 55 minutes later acute MK-801 maleate (0.1 mg/kg, SC). […] All startle responses were normalized to vehicle control, and the percent of prepulse inhibition was determined as 100−(average prepulse startle response/average startle stimulus alone)*100.

rats [5] = assay: Elevated-plus maze; type: in vivo, rat
Procedure: Rats were tested in a standard elevated plus maze; testing occurred in a dimly illuminated room using only two lights mounted over the maze. Animals were allowed to habituate to the room for at least one hour prior to treatment. One hour prior to testing, rats received a Pro-4001 (0-30 mg/kg, P.O.). For testing, the rat was placed in the elevated plus maze for five minutes, alternating the starting position between facing an open arm and facing a closed arm. The session was recorded and an observer blind to treatment recorded the number of explorations, entries and time spent in the open arm. Explorations were defined as the rat placing two feet into an open arm without fully entering said arm. Entries were defined as the rat placing all four feet in an open arm. Time of entry in the open arm was recorded from the time the rat placed four feet in the open arm until two of the rats' feet entered the open square.

Structure (SMILES): CCOC(=O)[C@H](CSC(=O)[C@@H](N)C(C)C)NC(C)=O.Cl [Pro-4001, ethyl (2R)-3-{[(2S)-2-amino-3-methylbutanoyl]sulfanyl}-2-acetamido-propanoate hydrochloride]
- decrease in 14C-cystine uptake [1]: 50%
- increase in 3H-glutamate release [2]: 175%
- intracellular cysteine concentration [3]: 0.78 µM
- intracellular cysteine concentration, times the control value [3]: approximately 5 times
- % prepulse inhibition (rats [4]): about 27%
- increase of time spent on the open arm (rats [5]; 10 mg/kg PO): 50%
- time spent on the open arms (rats [5]; 10 mg/kg PO): around 21 seconds
- increase of time spent on the open arm (rats [5]; 30 mg/kg PO): 64%
- time spent on the open arms (rats [5]; 30 mg/kg PO): around 25 seconds
